From ChEMBL document CHEMBL4477259, “Discovery and structure-activity relationships of a novel isothiazolone class of bacterial type II topoisomerase inhibitors” (Bioorg Med Chem Lett, 2016)
≈ marks a conversion by molar mass, not a printed value.

How the values were obtained:
Acinetobacter baumannii = experiment: Antibacterial activity against Acinetobacter baumannii NCTC 13420; type: functional
Klebsiella pneumoniae = experiment: Antibacterial activity against Klebsiella pneumoniae ATCC 700603; type: functional
Pseudomonas aeruginosa = experiment: Antibacterial activity against Pseudomonas aeruginosa ATCC 27853; type: functional
Staphylococcus aureus = experiment: Antibacterial activity against Staphylococcus aureus ATCC 29213; type: functional
Escherichia coli [1] = experiment: Antibacterial activity against Escherichia coli W4573; type: functional
Escherichia coli [2] = experiment: Antibacterial activity against Escherichia coli N43; type: functional
Escherichia coli [3] = experiment: Antibacterial activity against wild type Escherichia coli LM179; type: functional
Escherichia coli [4] = experiment: Antibacterial activity against Escherichia coli LM625 harboring GyrA S83L/D87N double mutant; type: functional
Escherichia coli [5] = experiment: Antibacterial activity against Escherichia coli LM367 harboring delta marR/delta acrR double mutant; type: functional
Escherichia coli [6] = experiment: Antibacterial activity against Escherichia coli LM693 harboring GyrA S83L/D87N double mutant/ParC S80I mutant; type: functional
Escherichia coli [7] = experiment: Antibacterial activity against Escherichia coli LM705 harboring GyrA S83L/D87N double mutant/ParC S80I mutant/delta marR/delta acrR double mutant; type: functional
Escherichia coli [8] = experiment: Antibacterial activity against Escherichia coli CH440 harboring GyrA S83L/D87N double mutant/ParC S80I E84V double mutant/aac(6')-lb-cr; type: functional
Escherichia coli [9] = experiment: Antibacterial activity against Escherichia coli CH460 harboring GyrA S83L/D87N double mutant/ParC S80I E84V double mutant/qepA; type: functional
Escherichia coli [10] = experiment: Antibacterial activity against Escherichia coli CH418 harboring GyrA S83L/D87N double mutant/ParC S80I E84G double mutant/qnrA; type: functional
Escherichia coli [11] = experiment: Antibacterial activity against Escherichia coli CH448 harboring GyrA S83L mutant/qnrS; type: functional
Escherichia coli [12] = experiment: Selectivity ratio of MIC for Escherichia coli LM625 harboring GyrA S83L/D87N double mutant to MIC for wild type Escherichia coli LM179; type: functional
Escherichia coli [13] = experiment: Selectivity ratio of MIC for Escherichia coli LM367 harboring delta marR/delta acrR double mutant to MIC for wild type Escherichia coli LM179; type: functional
Escherichia coli [14] = experiment: Selectivity ratio of MIC for Escherichia coli LM693 harboring GyrA S83L/D87N double mutant/ParC S80I mutant to MIC for wild type Escherichia coli LM179; type: functional
Escherichia coli [15] = experiment: Selectivity ratio of MIC for Escherichia coli LM705 harboring GyrA S83L/D87N double mutant/ParC S80I mutant/delta marR/delta acrR double mutant to MIC for wild type Escherichia coli LM179; type: functional
Escherichia coli [16] = experiment: Selectivity ratio of MIC for Escherichia coli CH440 harboring GyrA S83L/D87N double mutant/ParC S80I E84V double mutant/aac(6')-lb-cr to MIC for wild type Escherichia coli LM179; type: functional
Escherichia coli [17] = experiment: Selectivity ratio of MIC for Escherichia coli CH460 harboring GyrA S83L/D87N double mutant/ParC S80I E84V double mutant/qepA to MIC for wild type Escherichia coli LM179; type: functional
Escherichia coli [18] = experiment: Selectivity ratio of MIC for Escherichia coli CH418 harboring GyrA S83L/D87N double mutant/ParC S80I E84G double mutant/qnrA to MIC for wild type Escherichia coli LM179; type: functional
Escherichia coli [19] = experiment: Selectivity ratio of MIC for Escherichia coli CH448 harboring GyrA S83L mutant/qnrS to MIC for wild type Escherichia coli LM179; type: functional
HepG2 = experiment: Cytotoxicity against human HepG2 cells after 24 hrs by cell titre-glo assay; type: cell-based; conditions: HepG2, 24 h
[20] = n-octanol/phosphate buffer partition coefficient, log D of compound at pH 7.4 by shake-flask assay; type: physicochemical
hERG (KCNH2) = hERG (KCNH2) (Homo sapiens, UniProt Q12809); experiment: Inhibition of human ERG channel at 100 uM by automated patch clamp assay
[21] = target: Voltage-gated inwardly rectifying potassium channel KCNH2 (Homo sapiens, UniProt Q12809); experiment: Inhibition of human ERG channel by automated patch clamp assay
Voltage-gated inwardly rectifying potassium channel KCNH2, sequence (Q12809 whole entry): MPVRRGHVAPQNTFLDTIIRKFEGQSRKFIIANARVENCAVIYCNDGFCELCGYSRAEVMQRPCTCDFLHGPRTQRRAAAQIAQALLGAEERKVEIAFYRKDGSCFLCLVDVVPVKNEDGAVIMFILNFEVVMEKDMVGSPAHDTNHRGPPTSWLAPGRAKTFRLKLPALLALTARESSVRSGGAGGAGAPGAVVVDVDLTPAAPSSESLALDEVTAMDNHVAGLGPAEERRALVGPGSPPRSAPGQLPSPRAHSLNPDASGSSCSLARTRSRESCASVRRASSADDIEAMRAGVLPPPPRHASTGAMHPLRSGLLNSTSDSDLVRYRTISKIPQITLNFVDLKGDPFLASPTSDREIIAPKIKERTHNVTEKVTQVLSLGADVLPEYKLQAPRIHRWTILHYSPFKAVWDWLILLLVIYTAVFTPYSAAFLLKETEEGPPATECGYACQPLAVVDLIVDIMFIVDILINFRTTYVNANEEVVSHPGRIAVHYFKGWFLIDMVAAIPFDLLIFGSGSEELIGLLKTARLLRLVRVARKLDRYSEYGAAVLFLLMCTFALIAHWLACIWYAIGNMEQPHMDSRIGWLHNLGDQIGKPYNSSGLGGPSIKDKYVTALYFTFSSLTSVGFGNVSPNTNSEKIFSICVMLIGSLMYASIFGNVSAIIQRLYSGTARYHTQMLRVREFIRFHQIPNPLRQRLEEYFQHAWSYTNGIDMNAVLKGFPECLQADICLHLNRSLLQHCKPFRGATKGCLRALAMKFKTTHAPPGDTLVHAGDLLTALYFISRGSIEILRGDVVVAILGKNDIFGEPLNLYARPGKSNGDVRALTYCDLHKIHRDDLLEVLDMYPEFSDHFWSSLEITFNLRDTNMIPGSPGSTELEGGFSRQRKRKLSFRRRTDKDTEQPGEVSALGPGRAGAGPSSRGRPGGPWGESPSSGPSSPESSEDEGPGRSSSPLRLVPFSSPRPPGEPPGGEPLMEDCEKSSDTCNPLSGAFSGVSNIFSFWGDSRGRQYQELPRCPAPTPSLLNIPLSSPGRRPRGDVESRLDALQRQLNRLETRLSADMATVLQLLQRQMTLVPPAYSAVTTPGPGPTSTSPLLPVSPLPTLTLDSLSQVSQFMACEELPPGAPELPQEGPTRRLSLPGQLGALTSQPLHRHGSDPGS

hERG (KCNH2), sequence (Q12809 whole entry): as above

SMILES: CCc1c(-c2cccc(N3CCC(N(C)C)C3)c2)[nH]c(=O)c2c(=O)[nH]sc12 (stereo unspecified)
- MIC (Acinetobacter baumannii): 64 µg/mL (≈ 166 µM)
- MIC (Klebsiella pneumoniae): > 128 µg/mL
- MIC (Pseudomonas aeruginosa): > 128 µg/mL
- MIC (Staphylococcus aureus): 32 µg/mL (≈ 83.2 µM)
- MIC (Escherichia coli [1]): > 64 µg/mL
- MIC (Escherichia coli [2]): 8 µg/mL (≈ 20.8 µM)

SMILES: CCc1c(-c2ccc3c(cnn3C)c2)[nH]c(=O)c2c(=O)[nH]sc12
- MIC (Escherichia coli [3]): 0.5 µg/mL (≈ 1.53 µM)
- MIC (Escherichia coli [4]): 8 µg/mL (≈ 24.5 µM)
- MIC (Acinetobacter baumannii): 2 µg/mL (≈ 6.13 µM)
- MIC (Klebsiella pneumoniae): 16 µg/mL (≈ 49 µM)
- MIC (Pseudomonas aeruginosa): 4 µg/mL (≈ 12.3 µM)
- MIC (Staphylococcus aureus): 0.12 µg/mL (≈ 0.368 µM)
- MIC (Escherichia coli [1]): 0.5 µg/mL (≈ 1.53 µM)
- MIC (Escherichia coli [2]): 0.004 µg/mL (≈ 0.0123 µM)
- MIC (Escherichia coli [5]): 4 µg/mL (≈ 12.3 µM)
- MIC (Escherichia coli [6]): 16 µg/mL (≈ 49 µM)
- MIC (Escherichia coli [7]): > 64 µg/mL
- MIC (Escherichia coli [8]): 16 µg/mL (≈ 49 µM)
- MIC (Escherichia coli [9]): 16 µg/mL (≈ 49 µM)
- MIC (Escherichia coli [10]): 16 µg/mL (≈ 49 µM)
- MIC (Escherichia coli [11]): 16 µg/mL (≈ 49 µM)
- Selectivity ratio (Escherichia coli [12]): 16
- Selectivity ratio (Escherichia coli [13]): 8
- Selectivity ratio (Escherichia coli [14]): 32
- Selectivity ratio (Escherichia coli [15]): >128
- Selectivity ratio (Escherichia coli [16]): 32
- Selectivity ratio (Escherichia coli [17]): 32
- Selectivity ratio (Escherichia coli [18]): 32
- Selectivity ratio (Escherichia coli [19]): 32

SMILES: CCc1c(-c2ccc(N3CCC(NC)C3)cc2)[nH]c(=O)c2c(=O)[nH]sc12 (stereo unspecified)
- MIC (Acinetobacter baumannii): 16 µg/mL (≈ 43.2 µM)
- MIC (Klebsiella pneumoniae): 2 µg/mL (≈ 5.4 µM)
- MIC (Pseudomonas aeruginosa): 0.06 µg/mL (≈ 0.162 µM)
- MIC (Staphylococcus aureus): 0.12 µg/mL (≈ 0.324 µM)
- MIC (Escherichia coli [1]): 0.008 µg/mL (≈ 0.0216 µM)
- MIC (Escherichia coli [2]): 0.001 µg/mL (≈ 0.0027 µM)
- IC50 (HepG2): > 128 µg/mL
- logD [20]: 1.2
- inhibition at 100 µM (hERG (KCNH2)): 34%

SMILES: CCc1c(-c2cccc(N3CCC(CNC)C3)c2)[nH]c(=O)c2c(=O)[nH]sc12 (stereo unspecified)
- MIC (Acinetobacter baumannii): > 64 µg/mL
- MIC (Klebsiella pneumoniae): > 64 µg/mL
- MIC (Pseudomonas aeruginosa): > 64 µg/mL
- MIC (Staphylococcus aureus): 64 µg/mL (≈ 166 µM)
- MIC (Escherichia coli [1]): > 64 µg/mL
- MIC (Escherichia coli [2]): 8 µg/mL (≈ 20.8 µM)

SMILES: CCc1c(-c2ccc(N3C[C@@H]4CCCN(C)[C@@H]4C3)cc2)[nH]c(=O)c2c(=O)[nH]sc12
- MIC (Escherichia coli [3]): 4 µg/mL (≈ 9.74 µM)
- MIC (Escherichia coli [4]): 16 µg/mL (≈ 39 µM)
- MIC (Acinetobacter baumannii): 64 µg/mL (≈ 156 µM)
- MIC (Klebsiella pneumoniae): 64 µg/mL (≈ 156 µM)
- MIC (Pseudomonas aeruginosa): 32 µg/mL (≈ 77.9 µM)
- MIC (Staphylococcus aureus): 4 µg/mL (≈ 9.74 µM)
- MIC (Escherichia coli [1]): 4 µg/mL (≈ 9.74 µM)
- MIC (Escherichia coli [2]): 1 µg/mL (≈ 2.44 µM)
- MIC (Escherichia coli [5]): 16 µg/mL (≈ 39 µM)
- MIC (Escherichia coli [6]): > 64 µg/mL
- MIC (Escherichia coli [7]): > 64 µg/mL
- MIC (Escherichia coli [8]): > 64 µg/mL
- MIC (Escherichia coli [9]): 64 µg/mL (≈ 156 µM)
- MIC (Escherichia coli [10]): 64 µg/mL (≈ 156 µM)
- MIC (Escherichia coli [11]): 32 µg/mL (≈ 77.9 µM)
- Selectivity ratio (Escherichia coli [12]): 4
- Selectivity ratio (Escherichia coli [13]): 4
- Selectivity ratio (Escherichia coli [14]): >16
- Selectivity ratio (Escherichia coli [15]): >16
- Selectivity ratio (Escherichia coli [16]): >16
- Selectivity ratio (Escherichia coli [17]): 16
- Selectivity ratio (Escherichia coli [18]): 16
- Selectivity ratio (Escherichia coli [19]): 8

SMILES: CCc1c(-c2ccc(N3CC[C@H](O)C3)cc2)[nH]c(=O)c2c(=O)[nH]sc12
- MIC (Acinetobacter baumannii): 32 µg/mL (≈ 89.5 µM)
- MIC (Klebsiella pneumoniae): 4 µg/mL (≈ 11.2 µM)
- MIC (Pseudomonas aeruginosa): 0.5 µg/mL (≈ 1.4 µM)
- MIC (Staphylococcus aureus): 0.12 µg/mL (≈ 0.336 µM)
- MIC (Escherichia coli [1]): 0.25 µg/mL (≈ 0.699 µM)
- MIC (Escherichia coli [2]): 0.03 µg/mL (≈ 0.0839 µM)
- IC50 (HepG2): > 16 µg/mL
- logD [20]: 1.5
- inhibition at 100 µM (hERG (KCNH2)): 22%

SMILES: CCc1c(-c2ccc(N3CCC(N(C)C)C3)cc2)[nH]c(=O)c2c(=O)[nH]sc12 (racemic)
- MIC (Escherichia coli [3]): 0.5 µg/mL (≈ 1.3 µM)
- MIC (Escherichia coli [4]): 4 µg/mL (≈ 10.4 µM)
- MIC (Acinetobacter baumannii): 2 µg/mL (≈ 5.2 µM)
- MIC (Klebsiella pneumoniae): 4 µg/mL (≈ 10.4 µM)
- MIC (Pseudomonas aeruginosa): 1 µg/mL (≈ 2.6 µM)
- MIC (Staphylococcus aureus): 1 µg/mL (≈ 2.6 µM)
- MIC (Escherichia coli [1]): 0.25 µg/mL (≈ 0.65 µM)
- MIC (Escherichia coli [2]): 0.03 µg/mL (≈ 0.078 µM)
- IC50 (HepG2): > 128 µg/mL
- logD [20]: 1.4
- inhibition at 100 µM (hERG (KCNH2)): 84%
- IC50 [21]: 20 µM
- MIC (Escherichia coli [5]): 2 µg/mL (≈ 5.2 µM)
- MIC (Escherichia coli [6]): 8 µg/mL (≈ 20.8 µM)
- MIC (Escherichia coli [7]): 64 µg/mL (≈ 166 µM)
- MIC (Escherichia coli [8]): 16 µg/mL (≈ 41.6 µM)
- MIC (Escherichia coli [9]): 16 µg/mL (≈ 41.6 µM)
- MIC (Escherichia coli [10]): 16 µg/mL (≈ 41.6 µM)
- MIC (Escherichia coli [11]): 16 µg/mL (≈ 41.6 µM)
- Selectivity ratio (Escherichia coli [12]): 8
- Selectivity ratio (Escherichia coli [13]): 4
- Selectivity ratio (Escherichia coli [14]): 16
- Selectivity ratio (Escherichia coli [15]): 128
- Selectivity ratio (Escherichia coli [16]): 32
- Selectivity ratio (Escherichia coli [17]): 32
- Selectivity ratio (Escherichia coli [18]): 32
- Selectivity ratio (Escherichia coli [19]): 32

SMILES: O=C(O)c1cn(C2CC2)c2cc(N3CCNCC3)c(F)cc2c1=O [CIPROFLOXACIN]
- MIC (Klebsiella pneumoniae): 0.25 µg/mL (≈ 0.754 µM)
- MIC (Pseudomonas aeruginosa): 1 µg/mL (≈ 3.02 µM)
- MIC (Staphylococcus aureus): 0.25 µg/mL (≈ 0.754 µM)
- IC50 (HepG2): > 128 µg/mL
- MIC (Escherichia coli [7]): 64 µg/mL (≈ 193 µM)
- MIC (Escherichia coli [8]): > 64 µg/mL
- MIC (Escherichia coli [9]): > 64 µg/mL
- MIC (Escherichia coli [10]): 64 µg/mL (≈ 193 µM)
